# Test results taken from US7871981B2, “Inhibition of cell motility, angiogenesis, and metastasis” (The United States of America as represented by the …, priority 1999, dated 2011).
# Experiments:
# [1] = test system: MDCK cells; experiment: Extracellular matrix invasion assay, MDCK cells in collagen gels; type: cell-based, canine; conditions: peptide 100 nM
# Experimental: MDCK cell invasion into three-dimensional collagen gels was analyzed as previously described. Briefly, type I collagen (1.5 mg/ml; Cohesion Technologies) was mixed with 10×MEM and sodium bicarbonate (11.76 mg/ml) at a ratio of 8:1:1 (vol:vol:vol) on ice, and 0.4 ml aliquots were dispensed into 16-mm tissue culture wells (Nunc), and allowed to gel at 37° C. for 20 min. Cells were seeded onto gels (1×10^4 cells/well) in 0.4 ml of growth medium containing HGF and/or peptides 1 or 4 as indicated. After 5 days, cells were fixed in situ in 2.5% glutaraldehyde in 0.1 M sodium cacodylate buffer (pH 7.4), and cells that had invaded the gel below the surface monolayer in ten randomly selected fields (1×1.4 mm) were counted microscopically using a 20× phase contrast objective. Depth of cellular invasion into the collagen gel was quantitated in the same ten fields per treatment group using a calibrated fine focusing micrometer. Values were compared using the Student's unpaired t-test and a significant value was taken as P<0.001. Results in Table 1 are shown as the mean number of invading cells/field or mean invasion depth/cell in microns+standard error of the mean.
# MDCK cells were left untreated (Control), treated with HGF (10 ng/ml), or HGF+peptide 2 or 4 (100 nM), and invasion into collagen matrices was quantitated microscopically as described above. Values are the mean of at least 10 randomly selected fields±standard error of the mean. Epithelial Tube Formation Assay
# [2] = test system: TAC-2 cells; experiment: Epithelial tube formation assay, TAC-2 cells in collagen gels; type: cell-based; conditions: for HGF-induced elongation of epithelial tubes (cord length): HGF 20 ng/ml, 3 days; for concentration at which a sub-maximal inhibitory effect is already observed: HGF-induced tube elongation
# Experimental: TAC-2 cells were suspended in three-dimensional collagen gels at 1×10^4 cells/ml in collagen and incubated in complete medium containing HGF and/or Grb2 inhibitors as indicated. After 3 days, the cultures were fixed with 2.5% glutaraldehyde in 0.1 M cacodylate buffer, and at least 3 randomly selected fields per experimental condition in each of 3 separate experiments were digitally recorded with brightfield microscopy. The total length of the cords in each individual colony present in each optical field was measured with IPLab. Cord length was considered as “0” in: a) colonies with a spheroidal shape, and b) slightly elongated structures in which the length to diameter ratio was less than 2. The mean values for each experimental condition were compared to controls using the Student's unpaired t-test. Results in FIG. 5 are described as mean total cord length (in μm) per field.
# [3] = test system: HUVE cells; experiment: HUVE cell proliferation; type: cell-based, human; conditions: growth factor alone: HGF 25 ng/ml, VEGF 10 ng/ml, bFGF 5 ng/ml
# Experimental: HUVE or HMVE cells were seeded per triplicate in type I collagen-coated 48-well plates (Biocoat) (3000 cells/well) in […] of complete EGM-Bullet Kit medium (BioWhittaker, Walkersville, Md.), allowed to attach for 4 hr and incubated overnight with or without the indicated concentrations of peptide 2. The cultures were rinsed twice in serum-free medium and incubated with EBM medium (BioWhittaker) supplemented with 50 μg/ml heparin, 50 μg/ml ascorbic acid and 10% FCS. After either 4 days (HUVE) or 5 days (HMVE), cells were harvested with trypsin/EDTA and counted with an hemocytometer. The mean number of cells per ml was calculated from 3 independent measures for each of triplicate wells per experimental condition and compared to controls using the Student's unpaired t-test. Results set forth in FIG. 12 are described as the ratio of growth factor-treated to control proliferating cells designated on the y-axis as “Proliferation (Fold Increase)”.
# [4] = test system: HMEC-1 cells; experiment: Endothelial cell tubulogenesis assay on collagen (HMEC-1 collagen invasion); type: cell-based, human
# Experimental: HMEC-1 cell tubulogenesis assay on collagen gels was adapted from a previously described procedure (Montesano et al., Cell, 42: 469-77 (1985), Pepper et al., Exp. Cell Res., 204: 356-63 (1993)). Cells were seeded onto collagen gels cast in 16-mm wells (2.5×10^4 cells/well) and grown to confluence in reduced growth medium (5% FCS and 150 μg/ml ECGS). At confluence cells were pre-treated with or without Grb2 inhibitors for 24 hours, after which time medium was replaced by fresh medium supplemented with or without the indicated concentration of inhibitors and/or 20 ng/ml HGF. Medium and compounds were changed every day. After 24 hours, the cultures were fixed in situ, and 5 randomly selected optical fields per experimental condition in each of three separate experiments were digitally recorded under phase contrast microscopy using a 20× phase contrast objective, by focusing 20 μm beneath the surface of the gel. Invasion was quantitated using IPLab software (Scanalytics, Fairfax, Va.) by measuring the total length of all cellular structures that had penetrated beneath the surface monolayer either as apparently single cells or in the form of cell cords. Values were compared using Student's unpaired t-test and a significant value was taken at P<0.001. Results set forth in FIG. 7 are the mean total length (in μm) per field.
# [5] = test system: HMEC-1 cells; experiment: HMEC-1 cell migration, modified Boyden chamber; type: cell-based, human
# Experimental: (§1) The migration assay of HUVE and HMEC-1 cells in modified Boyden chambers was adapted from previously described procedures (Murohara et al., Thromb. Vasc. Biol., 19: 1156-61 (1999), Malinda et al., FASEB J., 13: 53-62 (1999)). In brief, Biocoat Cell Environment control inserts (8 micron pore size; Becton Dickinson) were coated with 0.1% gelatin (Sigma) for at least 1 hour at 37° C. and air dried. Lower chambers contained 0.7 ml RPMI+0.1% BSA, to which 20 ng/ml HGF and/or 300 nM Grb2 inhibitors were added. Cells were pre-treated with the indicated concentrations of Grb2 inhibitors for 18-24 hours, trypsinized, washed twice in RPMI+0.1% BSA, added to upper chambers (5×10^4 cells/well) with or without inhibitors in a final volume of 0.5 ml, and incubated for 4 h at 37° C. Cells on the upper surface of each filter were removed with a cotton swab, while cells that had traversed to the bottom surface of the filter were fixed and stained using Diff-Quik (Dade Diagnostics) and counted using a 10× objective. Mean values from 4 randomly selected fields (1×1.4 mm) were calculated for each of triplicate wells per experimental condition. Shown in FIG. 6 is the ratio of growth factor-treated to control migrating cells designated on the y-axis as “Migration (Fold Increase)” or as the mean number of cells per optical field in FIGS. 8-11.
# [6] = test system: HUVE cells; experiment: HUVE cell migration, modified Boyden chamber; type: cell-based, human
# Experimental: as §1
# [7] = test system: HUVECs; experiment: HUVE cell tubulogenesis assay on Matrigel; type: cell-based, human
# Experimental: The HUVE tube formation assay was performed as previously described (Grant et al., J. Cell. Physiol., 153: 614-625 (1992)). Briefly, 96-well plates were coated with 90 μl of Matrigel (10 mg/ml) (Collaborative Research) (Baatout, supra) and incubated at 37° C. for 30 min to promote gelling. 10,000 HUVECs were resuspended in reduced growth medium (serum concentration 10% and 5 U/ml heparin) and added to each well with the indicated reagents in a final volume of 100 μl. After 18 h, the plates were fixed with Diff-Quik, and at least 4 randomly selected fields per experimental conditions were digitally recorded under bright field illumination using a 10× objective. The mean additive length of the cords present in each optical field was measured using IPLab and compared to controls using the Student's unpaired t-test.
# [8] = test system: NIH 3T3 fibroblasts; experiment: NIH 3T3 fibroblast migration, modified Boyden chamber; type: cell-based; conditions: PDGF-BB 50 ng/ml alone
# Experimental: as §1
# PDGF is implicated in different biological processes such vascular remodeling, wound healing and cancer (for reviews, see Bornfeldt et al., Ann N Y Acad. Sci., 766:416-30, 1995; Gendron, Surv. Ophthalmol., 44:184-5, 1999). Addition of 50 ng/ml PDGF-BB to NIH 3T3 fibroblasts incubated in a modified Boyden chamber results in a dramatic, 20-fold increase in cell migration. […] This observation opens a potential therapeutical use of the Grb2 inhibitor compounds in the treatment of diseases such as cancer, wound healing disorders, vascular complications of diabetes mellitus, vascular nephropathies, and diseases with occurrence of fibrosis.
# [9] = peptide 300 nM, no growth factor
molecule,measurement,setting,value
"CC(=O)N[C@@H](Cc1ccc(C(C(=O)O)C(=O)O)cc1)C(=O)NC1(C(=O)N[C@@H](CC(N)=O)C(=O)NCCCc2cccc3ccccc23)CCCCC1 [peptide 3, (N-acetyl-4-malonyl)-Phe-Ac6c-Asn-NH-(3-naphthalen-1-yl-propyl)]",reduction of the mean depth of invasion per cell,[1]; HGF-stimulated,at least 50%
same,reduction of the number of invading cells,[1]; HGF-stimulated,at least 50%
same,HGF-induced elongation of epithelial tubes (cord length),[2],significantly (p<0.0001) abrogate
same,concentration at which a sub-maximal inhibitory effect is already observed,[2],30 nM
bFGF: human recombinant basic fibroblast growth factor,increase in the mean number of HUVE cells per ml (proliferation),[3],4.1 fold
"HGF: hepatocyte growth factor, recombinant human",Mean Invading Cells/Field,"[1]; HGF 10 ng/ml, 5 days",29.7 ± 2.6
same,Mean Invasion Depth/Cell,"[1]; HGF 10 ng/ml, 5 days",35.6 ± 2.7 μm
same,increase in collagen invasion,[4]; HGF 20 ng/ml alone,6 fold
same,increase in the mean number of HUVE cells per ml (proliferation),[3],2.3 fold
same,increase on cell motility induced by growth factor,[5]; HGF 20 ng/ml alone,5.5 fold
same,increase on cell motility induced by growth factor,[6]; HGF 20 ng/ml alone,3.5 fold
"CCCCCCCCCCCCCC(=O)O[C@@H]1[C@@H](C)[C@@]2(O)[C@@H](C=C(CO)C[C@]3(O)C(=O)C(C)=C[C@@H]23)[C@@H]2C(C)(C)[C@]12OC(C)=O [PMA, phorbol myristate acetate, reference compound]",increase of cell migration,[6]; PMA 40 ng/ml alone,300%
"NC(=O)C[C@H](NC(=O)C1(NC(=O)[C@H](Cc2ccc(CP(=O)(O)O)cc2)NC(=O)C(=O)O)CCCCC1)C(=O)NCCCc1cccc2ccccc12 [peptide 1, oxalyl-Pmp-Ac6c-Asn-NH-(3-naphthalen-1-yl-propyl)]",mean length of the cords per optical field,"[7]; HGF/NK1 300 ng/ml, peptide 1 μM, 18 h",2502.8±108 μm
same,extent of cord formation,[7]; peptide 1 μM + HGF/NK1,markedly reduced the extent of cord formation
same,decrease in mean cord length vs HGF/NK1 alone,[7]; peptide 1 μM + HGF/NK1 300 ng/ml,30%
same,HGF-induced elongation of epithelial tubes (cord length),[2],significantly (p<0.0001) abrogate
same,concentration at which a sub-maximal inhibitory effect is already observed,[2],30 nM
same,elongation and branching of duct-like structures,[2]; co-addition with HGF 20 ng/ml,abrogated the elongation and branching of duct-like structures
same,collagen invasion induced by HGF,"[4]; peptide 30-300 nM, HGF 20 ng/ml",suppressed
same,HGF-induced increase on cell motility,"[5]; peptide 300 nM, HGF 20 ng/ml",practically reverted to basal levels
same,basal levels of endothelial cell motility,[5]; [9],did not significantly alter
same,bFGF-induced HUVEC migration,[6]; peptide 300 nM,complete blockade
same,HGF-induced increase on cell motility,"[6]; peptide 300 nM, HGF 20 ng/ml",practically reverted to basal levels
same,basal levels of endothelial cell motility,[6]; [9],did not significantly alter
VEGF,increase in the mean number of HUVE cells per ml (proliferation),[3],2 fold
"PDGF-BB: platelet-derived growth factor used to stimulate NIH 3T3 migration (protein, UniProt P01127 82-190, looked up, homodimer, platelet-derived growth factor used to stimulate NIH 3T3 migration) Platelet-derived growth …: SLGSLTIAEPAMIAECKTRTEVFEISRRLIDRTNANFLVWPPCVEVQRCSGCCNNRNVQCRPTQVQLRPVQVRKIEIVRKKPIFKKATVTLEDHLACKCETVAAARPVT",increase in cell migration,[8],20 fold
